Reference: publication PMC11081523, “An ensemble machine learning model generates a focused screening library for the identification of CDK8 inhibitors” (Protein Science : A Publication of the Protein Society, 2024)

Molecular target: CDK8 (Homo sapiens, UniProt P49336)
Assay: LanthaScreen kinase activity assay (Thermo Fisher SelectScreen kinase profiling service)
Format: biochemical
Conditions: for IC50: CDK8, dose-response at 10,000, 3000, 1000, 300 and 100 nM; for inhibition at 10 µM: CDK8 inhibition, compounds tested at 10 μM, read-out: Inhibitory activity (10 μM)
Protocol: Selected compounds were tested using the Thermo Fisher Scientific SelectScreen kinase profiling service (www.thermofisher.com/selectscreen). The LanthaScreen kinase activity assay was used. In short, a reaction between fluorescein‐labeled substrate and ATP is performed in a container. The reaction is ceased with the addition of EDTA. A terbium‐labeled antibody is added to detect phosphorylated fluorescein‐labeled substrate. A ratio between the acceptor and donor signal is an indicator of the amount of phosphorylated substrate present in the reaction, thereby indicating kinase activity.

CDK8, sequence (P49336 whole entry): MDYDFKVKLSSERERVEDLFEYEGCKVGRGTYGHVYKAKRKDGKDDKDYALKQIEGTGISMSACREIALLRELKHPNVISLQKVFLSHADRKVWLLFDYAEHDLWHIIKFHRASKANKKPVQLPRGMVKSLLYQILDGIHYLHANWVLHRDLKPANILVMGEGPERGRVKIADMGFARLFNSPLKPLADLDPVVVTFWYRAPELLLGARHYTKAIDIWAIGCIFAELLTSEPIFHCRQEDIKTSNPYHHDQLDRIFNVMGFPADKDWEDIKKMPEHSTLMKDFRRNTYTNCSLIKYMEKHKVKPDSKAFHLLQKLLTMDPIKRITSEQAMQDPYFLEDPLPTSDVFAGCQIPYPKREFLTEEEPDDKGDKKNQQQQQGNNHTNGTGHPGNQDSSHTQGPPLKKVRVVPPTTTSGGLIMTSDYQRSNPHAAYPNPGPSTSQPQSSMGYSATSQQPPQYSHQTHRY
CDK8, sequence (P24863 whole entry partner): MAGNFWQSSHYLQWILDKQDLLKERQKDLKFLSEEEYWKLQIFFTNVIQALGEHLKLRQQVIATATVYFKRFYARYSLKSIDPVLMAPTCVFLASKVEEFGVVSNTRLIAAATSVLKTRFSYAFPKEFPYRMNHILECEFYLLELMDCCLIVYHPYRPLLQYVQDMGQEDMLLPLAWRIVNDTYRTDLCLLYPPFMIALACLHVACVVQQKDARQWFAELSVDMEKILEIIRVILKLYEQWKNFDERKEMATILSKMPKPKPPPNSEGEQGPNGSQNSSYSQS

| Compound | IC50 [µM] | inhibition at 10 µM [%] |
| --- | --- | --- |
| CC1CCN(C(=O)c2ccc3ncnc(N4CCCCC4)c3c2)CC1 [M628‐0340] | 1.92 | 77 |
| CCn1cc(-c2ccncc2)cc1C(=O)N1CCN(c2ccc(Cl)cc2)CC1 [P076‐1220] | 4.44 | 71 |
| CCCn1cc(-c2ccncc2)cc1C(=O)N1CCC(C)CC1 [P076‐1448] | 2.26 | 73 |

Next, values leading:

| IC50 [µM] | inhibition at 10 µM [%] | Compound |
| --- | --- | --- |
| 1.16 | > 90 | CCc1cc2c(N3CCCC(C(=O)N4CCN(c5ccc(F)cc5)CC4)C3)ncnc2s1 (stereo not drawn) [G887‐0711] |
| 1.84 | 71 | COc1ccc2ncc(C#N)c(N3CCC(C(=O)Nc4ccc(F)c(C)c4)CC3)c2c1 [L483‐0192] |
| 0.0999 | > 90 | Cc1ccc(NC(=O)Nc2cnn(-c3ncncc3N3CCOCC3)c2)cc1C [T479‐0984] |
